Laboratory results reported in ChEMBL document CHEMBL1697731, “Cheminformatics analysis of assertions mined from literature that describe drug-induced liver injury in different species” (Chem Res Toxicol, 2010).

Columns and labels:
[1] = test system: Hepatotoxicity; test: Literature-mined compound from Fourches et al multi-species drug-induced liver injury (DILI) dataset, effect in humans; conditions: human
[2] = test system: Hepatotoxicity; test: Literature-mined compound from Fourches et al multi-species drug-induced liver injury (DILI) dataset, effect in non-rodents
[3] = test system: Hepatotoxicity; test: Literature-mined compound from Fourches et al multi-species drug-induced liver injury (DILI) dataset, effect in rodents; conditions: rodentia

Row | Compound | Hepatotoxicity [1] | Hepatotoxicity [2] | Hepatotoxicity [3] | Hepatotoxicity ([1]; Liver) | Hepatotoxicity ([2]; Liver) | Hepatotoxicity ([3]; Liver)
1 | NC[C@H](O)c1ccc(O)c(O)c1 [NOREPINEPHRINE] | drug-induced liver injury reported | drug-induced liver injury reported | drug-induced liver injury reported | – | – | –
2 | COC1=C(OC)C(=O)C(C/C=C(\C)CC/C=C(\C)CC/C=C(\C)CC/C=C(\C)CC/C=C(\C)CC/C=C(\C)CC/C=C(\C)CC/C=C(\C)CC/C=C(\C)CCC=C(C)C)=C(C)C1=O [UBIDECARENONE] | no drug-induced liver injury reported | no drug-induced liver injury reported | drug-induced liver injury reported | – | – | –
3 | Cc1nnc(NS(=O)(=O)c2ccc(N)cc2)s1 [SULFAMETHIZOLE] | drug-induced liver injury reported | no drug-induced liver injury reported | no drug-induced liver injury reported | – | – | –
4 | CC[C@H]1OC(=O)[C@H](C)[C@@H](O[C@H]2C[C@@](C)(OC)[C@@H](O)[C@H](C)O2)[C@H](C)[C@@H](O[C@@H]2O[C@H](C)C[C@H](N(C)C)[C@H]2O)[C@](C)(O)C[C@@H](C)C(=O)[C@H](C)[C@@H](O)[C@]1(C)O [ERYTHROMYCIN] | drug-induced liver injury reported | no drug-induced liver injury reported | drug-induced liver injury reported | – | – | –
5 | CC(C(=O)O)c1ccc2oc(-c3ccc(Cl)cc3)nc2c1 (configuration not stated) [BENOXAPROFEN] | drug-induced liver injury reported | no drug-induced liver injury reported | drug-induced liver injury reported | – | – | –
6 | NCCCC[C@H](NC(=O)[C@@H]1CCCN1C(=O)[C@@H]1CSSC[C@H](N)C(=O)N[C@@H](Cc2ccccc2)C(=O)N[C@@H](Cc2ccccc2)C(=O)N[C@@H](CCC(N)=O)C(=O)N[C@@H](CC(N)=O)C(=O)N1)C(=O)NCC(N)=O [FELYPRESSIN] | no drug-induced liver injury reported | drug-induced liver injury reported | no drug-induced liver injury reported | – | – | –
7 | COc1cccc2c1C(=O)c1c(O)c3c(c(O)c1C2=O)C[C@@](O)(C(=O)CO)C[C@@H]3O[C@H]1C[C@H](N)[C@@H](O)[C@H](C)O1 [EPIRUBICIN] | no drug-induced liver injury reported | no drug-induced liver injury reported | drug-induced liver injury reported | – | – | –
8 | COC(=O)Nc1nc2ccc(C(=O)c3ccccc3)cc2[nH]1 [MEBENDAZOLE] | drug-induced liver injury reported | drug-induced liver injury reported | no drug-induced liver injury reported | – | – | –
9 | O=C([O-])O.[Na+] [SODIUM BICARBONATE] | – | – | – | no drug-induced liver injury reported | drug-induced liver injury reported | drug-induced liver injury reported
10 | IVERMECTIN | drug-induced liver injury reported | no drug-induced liver injury reported | no drug-induced liver injury reported | – | – | –
11 | CC(=O)c1ccc(S(=O)(=O)NC(=O)NC2CCCCC2)cc1 [ACETOHEXAMIDE] | drug-induced liver injury reported | no drug-induced liver injury reported | no drug-induced liver injury reported | – | – | –
12 | CC(=O)O[C@]1(C(C)=O)CC[C@H]2[C@@H]3C=C(C)C4=CC(=O)CC[C@]4(C)[C@H]3CC[C@@]21C [MEGESTROL ACETATE] | drug-induced liver injury reported | no drug-induced liver injury reported | drug-induced liver injury reported | – | – | –
13 | CN1CCN2c3ncccc3Cc3ccccc3C2C1 (configuration not stated) [MIRTAZAPINE] | drug-induced liver injury reported | no drug-induced liver injury reported | no drug-induced liver injury reported | – | – | –
14 | CCCCC1=NC2(CCCC2)C(=O)N1Cc1ccc(-c2ccccc2-c2nnn[nH]2)cc1 [IRBESARTAN] | drug-induced liver injury reported | no drug-induced liver injury reported | drug-induced liver injury reported | – | – | –
